Reference: patent US20250367209A1 (SOUTHERN RESEARCH INSTITUTE, priority 2022, published 2025)
“Also recorded” adds a separate entry of the source.

Legend:
[1] = test system: Sam68(PxxP)-FynSH3 interaction; conditions: Oneyama et al. 2002; cited from earlier work
[2] = target: 97 kinases; assay: Eurofins DiscoverX ScanEDGE kinase panel; assay type: biochemical; conditions: compound no. 69 at 3 μM; saracatinib stock 30 μM = 1000× testing concentration; activity = <35% of control
Excerpt: 69 and compound no. […] Since Fyn was not included in that panel, a custom panel was completed for Fyn kinase activity.

[3] = Phase IIa, van Dyck et al. 2019; cited from earlier work
[4] = Metabolic stability in human liver microsomes; assay type: in vitro ADME; conditions: Table 3, read-out: ADME t1/2 (min): HLMt1/2
Excerpt: (§1) A computational analysis of the top five hits was then completed to assess the physical attributes of the compounds emerging from the HTS. The target profile for drug-like properties included evaluation of molecular weight (MW), total polar surface area (PSA, the surface sum of all polar atoms on the molecule), solubility, metabolic stability, and partition coefficient (LogD). In general, MW<[…] and PSA <70 Å^2 were targeted, which generally allows for blood-brain barrier (BBB) permeability. Compounds with PSA >100 A^2 are generally poor at permeating cell membranes. Solubility was targeted at >10 μM at pH 7.4 and 40-60% of compound remaining after 60 minutes of incubation in mouse or human liver microsomes (an indicator of compound stability after first-pass metabolism). LogD is the log of the ratio of concentrations of a compound in two immiscible solvents at equilibrium. Values ranging from 2-4 were targeted, typical for CNS drugs. Based on these criteria, compound no. 55 was selected as the top hit for optimization. Compound no.

[5] = target: Tau-FynSH3 interaction (Homo sapiens (Human), UniProt P10636); assay: Tau-FynSH3 AlphaScreen; assay type: binding; conditions: Table 3; read-out: Alpha screen IC50
Excerpt: Human Fyn-SH3 domain with GST-tag at the N-terminus and a Strep-tag II ([…]) at the C-terminus (GST-Fyn-SH3-Strep) was cloned into pPR-IBA1 vector (IBA Lifesciences) (Cochran, et al. (2014) J. Biomol. Screen. 19, 1338-1349). Codon-optimized human 4R2N Tau for E. coli expression with a Strep-tag II at the C-terminus (His-Tau-Strep) was cloned into pET-28a(+) vector (Novagen). The constructs were transformed into E. coli BL-21(DE3) competent cells (Novagen). For GST-Fyn-SH3-Strep purification, a single colony was inoculated in Luria-Bertani (LB) broth at 37° C. overnight. 10 mL cell culture was added into 500 mL LB medium and cultured at 37° C. 0.5 mM Isopropyl β-D-1-thiogalactopyranoside (IPTG) was added into the culture when OD600 reached 0.7. Cells were further cultured at 25° C. for 4 hours and harvested. Cell pellet was resuspended in lysis buffer (20 mM Tris pH 7.9, 300 mM NaCl, 1 mM TCEP) with 1 tablet of EDTA-free protease inhibitors (ThermoFisher) and 1 mg/ml lysozyme. Cells were disrupted by sonication and debris was removed by centrifugation at 9500 rpm for 1 hour. Supernatant was loaded onto a glutathione-sepharose column (Cytiva). The column was washed in lysis buffer and protein eluted in lysis buffer containing 25 mM reduced glutathione. For His-Tau-Strep protein purification, cells were inoculated in LB broth medium and cultured at 37° C. overnight. A 10 mL overnight culture was added to 500 mL of auto-induction medium (Studier, F. W. (2005) Protein Expr Purif 41, 207-34) and cells were cultured at 37° C. for about 5 hours. The temperature was lowered to 18° C., and cells were cultured overnight. Cells were harvested and resuspended in lysis buffer with 20 mM imidazole, protease inhibitors, and lysozyme. Cells were disrupted by sonication and cell pellets were spun down at 9500 rpm for 1 hour. Supernatant was loaded onto Ni-NTA column (Cytiva) and the column was washed in lysis buffer with 20 mM imidazole. His-Tau-Strep protein was eluted in lysis buffer containing 400 mM imidazole. Both eluted GST-Fyn-SH3-Strep and His-Tau-Strep protein solutions were passed through G-25 desalting column (Cytiva) with lysis buffer and loaded onto high capacity Strep-Tactin column (IBA Lifesciences). The columns were washed in Buffer W (IBA Life sciences) and proteins were eluted in Buffer E (IBA life sciences). The eluted proteins were passed through G-25 desalting column again. Both GST-Fyn-Strep and His-Tau-Strep proteins were concentrated and diluted 1:1 in ethylene glycol as a cryoprotectant for storage at −80° C.
AlphaScreen was conducted with 10 µg/mL of glutathione donor beads (PerkinElmer, Waltham, MA) and nickel chelate acceptor beads (PerkinElmer) in 10 mM Bis-Tris (pH 7.0), 1 mM TCEP, 0.02% casein, and 0.1% Tween-20. Compounds were plated first followed by addition of one the proteins at 600 nM and incubation for 30 min. The second protein was added and incubated for 30 mn, then the beads were added simultaneously and the final mixture was incubated for 2 hours. Experiments were conducted in 384-well plates (6007290; PerkinElmer) and results were read on a PHERAstar plate reader (BMG Labtech, Cary, NC).
˜50,000 compounds from the Enamine and Southern Research libraries were screened to identify Tau-FynSH3 interaction inhibitors using an AlphaScreen assay (Cochran, et al. (2014) J. Biomol. Screen. 19, 1338-1349). Compounds that were >3 standard deviations above mean inhibition were selected, yielding 1,852 hits (FIG. 1A). […]. These 39 compounds were tested in a live-cell BRET assay to measure Tau-Fyn interaction in cells. […]. Screen. 19, 1338-1349).

[6] = Metabolic stability in mouse liver microsomes; assay type: in vitro ADME; conditions: mouse, liver microsomes, Table 3, read-out: ADME t1/2 (min): MLMt1/2
[7] = Solubility; assay type: physicochemical; conditions: Table 3
[8] = Partition coefficient (LogD); assay type: physicochemical; conditions: Table 3; read-out: ADME LogD
Excerpt: as §1

[9] = test system: primary rat neurons; assay: Modified MTT assay of Aβ toxicity in primary neurons; assay type: cell-based; conditions: Table 3; Aβ toxicity in primary neurons
Excerpt: Primary neuron cultures: All animal procedures were approved by the Institutional Animal Care and Use Committee at the University of Alabama at Birmingham (UAB). As before (Rush, et al. (2020) Neurobiol Dis 134, 104668; Voskobiynyk, et al. (2020) eLife 9, e57354), primary rat neurons were isolated from timed-pregnant Sprague-Dawley rats. Briefly, dams were euthanized with isoflurane anesthesia asphyxiation, and hippocampal tissue was isolated from E19 embryos in Hibernate E, then digested in papain for 10 minutes at 37° C. Neurons were triturated into a single cell suspension in Neurobasal supplemented with B-27, L-Glutamine, and 10% FBS, then plated in 96-well plates coated with PDL and laminin at 30,000 neurons per well in 200 uL medium or in 24-well coated plates with or without coverslips at 50,000 per well. Cultures were maintained at 37° C. with 5% CO2. Twenty-four hours after plating (DIV1), two 50% media changes with Neurobasal plus B-27 and L-Glutamine without FBS, and 5 μM cytosine β-D-arabinofuranoside was added to prevent glial proliferation. 50% media changes were performed at DIV7 and DIV14 with serum-free supplemented Neurobasal and experiments were started at DIV19.
Aβ oligomer preparation: As before (Rush, et al. (2020) Neurobiol Dis 134, 104668), lyophilized recombinant Aβ42 was dissolved in HFIP, dried overnight, then stored at −20° C. until oligomerization. To oligomerize, Aβ was dissolved in DMSO to 1 mM, then diluted to 100 µM in PBS, then sonicated and left on ice for 24 hours. Immediately prior to use, Aβ was centrifuged at 4° C. for 10 minutes at 14,000×g. Vehicle was prepared as well in identical fashion except lacking the Aβ peptide.
Aβ toxicity assays: The modified MTT and MAP2 assays were adapted from a recent study (Rush, et al. (2020) Neurobiol Dis 134, 104668). Briefly, at DIV19, media on the neurons was reduced to […], then compound was added to final concentration of 0 μM, 0.3 μM, 3 μM, or 15 μM with even amounts of DMSO. After 90-minute pretreatment with compound, 2.5 μM Aβ was added.
The modified MTT assay was performed 24 hours after Aβ application. 100 μM MTT was applied to neurons and incubated at 37° C. for one hour. Media was removed, then replaced with 15 μL 1.6% Tween20 in PBS and incubated on a shaker at 100 rpm for 5 minutes. The Tween was then removed and transferred to a 384-well clear-bottom plate and replaced with 15 μL isopropanol. Plates were again agitated for 5 minutes at RT, then isopropanol was transferred to the 384-well plate. Absorbance was then read at 590 nm on a plate reader, with 660 nm used as a reference. The ratio of Tween soluble MTT to isopropanol soluble (Tween-insoluble) MTT was calculated for each sample, then normalized to the vehicle group average.

[10] = target: Tau-Fyn interaction (Homo sapiens (Human), UniProt P10636); assay: Tau-Fyn PLA screening in HEK-293 cells; assay type: cell-based; conditions: Table 3; Tau-Fyn PLA
Procedure: Tau-Fyn PLA screening in HEK-293 cells: For Tau-Fyn PLA in HEK-293 cells, we used the same plasmids as before (Rush, et al. (2020) Neurobiol Dis 134, 104668): human 4R2N Tau with an N-terminal mKate2 tag in a pcDNA3.1 vector and human Fyn with an N-terminal Myc tag in a pCMV-Sport6 vector grown in Stellar E. coli. HEK-293 cells were plated on coverslips coated with PDL and laminin in a 24-well plate in DMEM supplemented with 10% FBS and 1% PenStrep. Cells were transfected with 125 ng of Tau-mKate2 and Fyn plasmids with 1.5 μL Fugene in plain DMEM. After 24 hours, compound was applied at 15 μM. Twenty-four hours after application, cells were fixed. PLA protocol was the same as above except for different primary antibodies (Tau5 1:500, Fyn3 1:250). After image acquisition, PLA density was calculated as PLA puncta (as above) divided by cell area to account for differences in confluency. Cell area was defined with ImageJ as % Area after theresholding Tau-mKate2 fluorescence because it filled the cells evenly. Puncta/cell area was then normalized to vehicle-treated slides from that experiment.

Chain of Tau-FynSH3 interaction (P10636 other isoform, or with tags, fused parts or gaps): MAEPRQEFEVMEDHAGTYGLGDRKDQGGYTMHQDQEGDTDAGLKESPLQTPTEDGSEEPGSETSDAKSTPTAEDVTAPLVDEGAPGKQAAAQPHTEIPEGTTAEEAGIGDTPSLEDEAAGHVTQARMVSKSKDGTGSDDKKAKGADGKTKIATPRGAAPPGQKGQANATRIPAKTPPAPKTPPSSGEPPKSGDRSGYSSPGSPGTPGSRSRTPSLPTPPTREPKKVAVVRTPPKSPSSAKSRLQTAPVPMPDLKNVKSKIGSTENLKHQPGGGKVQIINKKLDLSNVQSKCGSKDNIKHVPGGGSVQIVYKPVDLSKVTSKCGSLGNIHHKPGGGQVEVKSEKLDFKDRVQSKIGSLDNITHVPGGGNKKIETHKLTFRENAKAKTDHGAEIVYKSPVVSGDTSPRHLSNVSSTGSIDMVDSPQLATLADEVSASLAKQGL
Chain of Tau-Fyn interaction (P10636 other isoform, or with tags, fused parts or gaps): as above

Row | Molecule | half-life [4] | IC50 [5] | half-life [6] | ADME Sol (μM) [7] | logD [8] | PLA [10] | Sam68(PxxP)-FynSH3 interaction [1] | kinase inhibition, panel of 97 kinases [2] | clinical benefit in AD [3] | MTT [9]
1 | UCS15A |  |  |  |  |  |  | inhibits Sam68(PxxP)-FynSH3 interaction |  |  | 
2 | CN1CCN(CCOc2cc(OC3CCOCC3)c3c(Nc4c(Cl)ccc5c4OCO5)ncnc3c2)CC1 [saracatinib, reference compound] |  |  |  |  |  |  |  | inhibited several Src family kinases; also recorded: inhibits Src, Fyn, Abl, and EGFR kinase activity | showed no clinical benefit in AD at a tolerable dose | 
3 | O=C(CN1C(=O)CSc2ccc(F)cc21)Nc1nnc(-c2ccccn2)[nH]1 [compound 15, 2-(6-FLUORO-3-OXO-2H-BENZO[B][1,4]THIAZIN-4(3H)-YL)-N-(5-(PYRIDIN-2-YL)-4H-1,2,4-TRIAZOL-3-YL)ACETAMIDE] | 238 min | 1.08 µM | 53 min | Sol = 65 μM | 1.8 |  |  |  |  | 
4 | COc1ccc2c(c1)N(CC(=O)Nc1nnc(-c3ccccn3)[nH]1)C(=O)CS2 [compound 22, 2-(6-METHOXY-3-OXO-2H-BENZO[B][1,4]THIAZIN-4(3H)-YL)-N-(5-(PYRIDIN-2-YL)-4H-1,2,4-TRIAZOL-3-YL)ACETAMIDE] | 150 min |  | 56 min | Sol = 80 μM | 1.8 | Active |  |  |  | Active

Now from value to molecule, other results behind:

Row | half-life [4] | IC50 [5] | half-life [6] | ADME Sol (μM) [7] | logD [8] | PLA [10] | Molecule | Sam68(PxxP)-FynSH3 interaction [1] | kinase inhibition, panel of 97 kinases [2] | clinical benefit in AD [3] | MTT [9]
5 | 53 min | 2.97 µM | 20 min | Sol = 81 μM | 1.8 |  | O=C(CCN1C(=O)CSc2cc(F)c(F)cc21)Nc1nnc(-c2ccccn2)[nH]1 [compound 9, 3-(6,7-DIFLUORO-3-OXO-2H-BENZO[B][1,4]THIAZIN-4(3H)-YL)-N-(5-(PYRIDIN-2-YL)-4H-1,2,4-TRIAZOL-3-YL)PROPANAMIDE] |  |  |  | 
6 | 78 min | 1.92 µM | 22 min | Sol = 69 μM | 2 |  | O=C(CCN1C(=O)CSc2cc(F)ccc21)Nc1nnc(-c2ccccn2)[nH]1 [compound 7, 3-(7-FLUORO-3-Oxo-2H-BENZO[B][1,4]THIAZIN-4(3H)-YL)-N-(5-(PYRIDIN-2-YL)-4H-1,2,4-TRIAZOL-3-YL)PROPANAMIDE] |  |  |  | 
7 | 62 min | 2.72 µM | 18 min | Sol = 24 μM | 2.3 |  | O=C(CCN1C(=O)CSc2cc(Cl)ccc21)Nc1nnc(-c2ccccn2)[nH]1 [compound 8, 3-(7-CHLORO-3-OXO-2H-BENZO[B][1,4]THIAZIN-4(3H)-YL)-N-(5-(PYRIDIN-2-YL)-4H-1,2,4-TRIAZOL-3-YL)PROPANAMIDE] |  |  |  | Active
